Data reported in patent US10662168B2, “Compounds for treating parasitic infections” (University of Maryland, College Park, priority 2015, dated 2020).
pIC50: −log10 of the molar value. Where two headings read alike, the source gives them in different places.

Tests used:
[1] = test system: intracellular forms of Leishmania (L. amazonensis amastigotes in BMDMs); conditions: benchmark value; read-out: IC50 against intra-macrophage L. amazonensis; cited from earlier work
[2] = test system: intracellular L. donovani; conditions: cited from earlier work
BMDMs = assay: Toxicity to uninfected host BMDMs (AlamarBlue viability); type: cell-based, mouse; conditions: even at 40-fold greater concentrations
Procedure: (§1) FIG. 5. Dose response curves (IC50) of FX40 (∘) and the novel derivative compound FX104 (●). (A) BMDMs infected with L. amazonensis amastigotes were treated with various concentrations of the indicated compound for 72 h. BMDMs were lysed and released amastigotes were transformed to promastigotes for 48 h at 26° C. IC50 values were calculated by quantitation of % promastigote growth using AlamarBlue. (B) Dose response of uninfected BMDMs to compounds. (C) A table showing selectivity criteria for drug efficacy studies. (D) A table showing a summary of high throughput screening.
(§2) To validate the […] efficacy of lead compounds against intracellular amastigotes in macrophages, primary bone marrow-derived macrophages (BMDMs) from mice were obtained and infected them with L. amazonensis amastigotes followed by incubation for 72 h with LHR1 antagonists or amphotericin B which kills intracellular Leishmania, as a positive control. Cells were then fixed and stained with DAPI which permits visualization of the host macrophage nuclei and parasite nuclei and kinetoplasts. Images collected with fluorescent microscopy were used to determine the ratio between total number of parasites and total number of host cells per treatment. Toxicity to host cells were measured by AlamarBlue viability assays. […] (Sch. 1 and FIG. 4A) The structure of FX104 is shown in Scheme 1.

P-gp = P-gp (Homo sapiens, UniProt P08183); assay: Drug-like parameters: P-gp efflux; type: in vitro ADME
Sequence of P-gp (P08183 whole entry): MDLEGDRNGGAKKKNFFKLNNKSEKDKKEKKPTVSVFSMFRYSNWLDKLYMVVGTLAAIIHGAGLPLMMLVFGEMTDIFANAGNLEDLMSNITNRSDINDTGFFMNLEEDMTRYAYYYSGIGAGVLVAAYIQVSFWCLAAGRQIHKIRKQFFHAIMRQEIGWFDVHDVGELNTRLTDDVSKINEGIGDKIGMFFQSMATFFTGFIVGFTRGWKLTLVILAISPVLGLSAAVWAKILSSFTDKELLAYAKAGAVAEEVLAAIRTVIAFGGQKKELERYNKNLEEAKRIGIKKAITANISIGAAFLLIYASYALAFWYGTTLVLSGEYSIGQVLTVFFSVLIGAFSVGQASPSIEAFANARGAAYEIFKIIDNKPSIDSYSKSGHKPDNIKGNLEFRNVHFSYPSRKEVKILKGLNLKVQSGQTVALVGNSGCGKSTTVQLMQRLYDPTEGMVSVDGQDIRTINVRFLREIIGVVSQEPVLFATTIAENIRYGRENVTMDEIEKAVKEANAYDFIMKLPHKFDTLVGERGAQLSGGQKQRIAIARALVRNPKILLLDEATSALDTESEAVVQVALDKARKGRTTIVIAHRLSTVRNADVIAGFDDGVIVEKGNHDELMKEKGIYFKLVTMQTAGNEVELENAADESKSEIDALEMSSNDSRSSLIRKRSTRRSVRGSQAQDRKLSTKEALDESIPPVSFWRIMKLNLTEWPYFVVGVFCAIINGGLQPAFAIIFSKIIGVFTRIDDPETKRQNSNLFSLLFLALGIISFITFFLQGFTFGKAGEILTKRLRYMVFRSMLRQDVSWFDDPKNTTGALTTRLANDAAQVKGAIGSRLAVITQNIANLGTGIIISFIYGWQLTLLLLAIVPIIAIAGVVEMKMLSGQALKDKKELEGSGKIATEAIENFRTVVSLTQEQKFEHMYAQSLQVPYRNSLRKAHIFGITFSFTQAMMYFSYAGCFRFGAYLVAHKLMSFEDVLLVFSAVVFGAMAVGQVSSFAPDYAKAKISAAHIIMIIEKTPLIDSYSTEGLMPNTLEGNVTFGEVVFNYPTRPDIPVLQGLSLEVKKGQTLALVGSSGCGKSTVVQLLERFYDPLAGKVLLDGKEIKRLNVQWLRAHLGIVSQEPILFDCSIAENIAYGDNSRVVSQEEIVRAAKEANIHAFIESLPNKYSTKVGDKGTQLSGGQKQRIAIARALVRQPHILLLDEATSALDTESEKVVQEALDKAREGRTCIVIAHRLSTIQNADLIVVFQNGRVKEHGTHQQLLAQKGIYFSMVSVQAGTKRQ

[3] = Drug-like parameters: absorption and metabolic stability; type: in vitro ADME
[4] = Drug-like parameters: Log P and solubility; type: physicochemical
[5] = test system: intracellular forms of Leishmania (L. amazonensis amastigotes in BMDMs); assay: Dose response in BMDMs infected with L. amazonensis amastigotes, released amastigotes transformed to promastigotes, AlamarBlue; type: cell-based
Procedure: as §1, §2

SMILES | pIC50 [1] | pIC50 ([2]; benchmark value, read-out: IC50 for intra-macrophage L. donovani) | efficacy ([2]; benchmark, intra-macrophage Leishmania) | toxicity in BMDMs (BMDMs) | P-gp efflux (P-gp) | absorption [3] | metabolic stability [3] | solubility [4] | pIC50 ([5]; BMDM, BMDMs infected with L. amazonensis amastigotes, 72 h, read-out: IC50 against intracellular forms of Leishmania) | fold more effective against intracellular forms of Leishmania than FX40 ([5]; FX104 versus FX40)
C[C@@H]1[C@H](O)[C@@H](C)/C=C/C=C/C=C/C=C/C=C/C=C/C=C/[C@H](O[C@@H]2O[C@H](C)[C@@H](O)[C@H](N)[C@@H]2O)C[C@@H]2O[C@](O)(C[C@@H](O)C[C@@H](O)[C@H](O)CC[C@@H](O)C[C@@H](O)CC(=O)O[C@H]1C)C[C@H](O)[C@H]2C(=O)O [Amphotericin B] | 7.00 to 7.30 | 7.22 to 7.70 | > 90% |  |  |  |  |  |  | 
Cc1ccc([C@]2(NCCN(C)C)OC(=O)c3cccc(F)c32)cc1C [FX104] |  |  |  | little or no toxicity | decreased | better | better | better | 6.60 | over 30 fold
